Counter-ions that a name gives are not always drawn.
Legend:
[1] = system: AMPA receptors; conditions: literature; cited from earlier work
[2] = system: animals; conditions: literature; cited from earlier work
[3] = literature; cited from earlier work
[4] = system: AMPA receptor; test: Cortical wedge model, AMPA receptor (rat brain slices in vitro); format: cell-based; conditions: receptor subtype AMPA; for EC50: agonists
Method: (§1) The Cortical wedge model is a test in which slices of rat brain is examined in vitro in order to quantify the effect of ligands at the various Glu-receptors and evaluate the pharmacological profile of the ligands (i.e. agonist/antagonist properties). The test was performed as described by Harrison, N. L. and Simmonds, M. A. Br.J.Pharmacol. 1985, 84, 381-391 as modified according to Wheatley, P. L. Br.J.Pharmacol. 1986, 87, 159P.

[5] = system: NMDA receptor; test: Cortical wedge model, NMDA receptor (rat brain slices in vitro); format: cell-based; conditions: receptor subtype NMDA; for pKi: antagonist
Method: as §1

Row | Compound | Profile [4] | EC50 [4] [µM] | other results
1 | Cc1onc(C(=O)O)c1CC(N)C(=O)O (racemic) [ACPA] |  |  | agonist effects at AMPA receptors [1]: potent AMPA receptor agonist
2 | Cc1onc(O)c1CC(N)C(=O)O (racemic) [AMPA, (RS)-2-amino-3-(3-hydroxy-5-methylisoxazol-4-yl)propionic acid] |  |  | agonist effects at AMPA receptors [1]: selective agonist effects at AMPA receptors
3 | NC(Cc1c(O)noc1-c1ccccc1)C(=O)O (racemic) [APPA, (RS)-2-Amino-3-(3-hydroxy-5-phenylisoxazol-4-yl)propionic acid] |  |  | agonist effects at AMPA receptors [1]: weak but unique partial agonist profile
4 | CC(C)(C)c1onc(O)c1CC(N)C(=O)O (racemic) [ATPA] |  |  | neurotoxic effects [2]: has not been reported to show neurotoxic effects in animals; systemic activity [3]: systemically active
5 | COc1noc(C(=O)O)c1CC(N)C(=O)O.O (racemic) [Compound 1, (RS)-2-Amino-3-(5-carboxy-3-methoxyisoxazol-4-yl)propionic Acid Hydrate] | Agonist | 1.2 | 
6 | CCOc1noc(C(=O)O)c1CC(N)C(=O)O (racemic) [Compound 2, (RS)-2-Amino-3-(5-carboxy-3-ethoxyisoxazol-4-yl)propionic Acid] | Agonist | 4.8 | 
7 | CC(C)Oc1noc(C(=O)O)c1CC(N)C(=O)O (racemic) [Compound 3, (RS)-2-Amino-3-(5-carboxy-3-isopropoxyisoxazol-4-yl)propionic Acid] | Agonist | 40 | 
8 | CCOc1noc(-c2nnn[nH]2)c1CC(N)C(=O)O (racemic) [Compound 8, (RS)-2-Amino-3-[3-ethoxy-5-(5-tetrazolyl)isoxazol-4-yl]propionic acid] | Agonist | 2000 | 
9 | CCCOc1noc(C(=O)O)c1CC(N)C(=O)O (racemic) [Compound 10, (RS)-2-Amino-3-(3-propoxy-5-carboxyisoxazol-4-yl)propionic Acid] | Agonist | 80 | 
10 | CCCCOc1noc(C(=O)O)c1CC(N)C(=O)O (racemic) [Compound 11, (RS)-2-Amino-3-(3-butoxy-5-carboxisoxazol-4-yl)propionic Acid] | Part. Agonist | 325 | 
11 | C=CCOc1noc(C(=O)O)c1CC(N)C(=O)O (racemic) [Compound 12, (RS)-2-Amino-3-(3-allyloxy-5-carboxyisoxazol-4-yl)propionic Acid] | Agonist | 40 | 
12 | NC(Cc1c(C(=O)O)on(Cc2ccccc2)c1=O)C(=O)O (racemic) [Compound 13, (RS)-2-Amino-3-(2-benzyl-5-carboxy-2,3-dihydro-3oxisoxazol-4-yl)propionic Acid, Hydrochloride, Monohydrate] |  |  | Profile [5]: Antagonist; pKi [5]: 3.5
13 | CCOc1noc(C(=O)O)c1C[C@@H](N)C(=O)O [(R)-2, (R)-2-Amino-3-(5-carboxy-3-ethoxyisoxazol-4-yl)propionic Acid] | Antagonist |  | pKi ([4]; antagonist): 3.28
14 | CCOc1noc(C(=O)O)c1C[C@H](N)C(=O)O [(S)-2, (S)-2-Amino-3-(5-carboxy-3-ethoxyisoxazol-4-yl)propionic Acid] | Agonist | 4.4 | 
15 | CCOc1noc(C(=O)O)c1CNc1c(N)c(=O)c1=O [Compound 17, [4-(2-Amino-3,4-dioxocyclobut-1-en-1-yl)aminomethyl]-3-ethoxyisoxazole-5-carboxylic Acid] |  |  | Profile [5]: Antagonist; pKi [5]: 3.3

Reference: patent US6200999A, “3-Alkoxyisoxazol-4-yl-substituted 2-amino carboxylic acid compounds” (H. Lundbeck A/S, priority 1996, dated 2001)
